This note sets out measurements from patent US20130096160A1, “ARYLTHIAZOLYL PIPERIDINES AND RELATED COMPOUNDS AS MODULATORS OF SURVIVAL MOTOR NEURON (SMN) PROTEIN PRODUCTION” (Secretary, Department of Health and Human Services, priority 2010, published 2013).

The assay concerns SMN2-luciferase reporter. Nature of the assay: SMN2-luciferase reporter qHTS assay. It is filed as cell-based, human. On the set-up: key to Curve Class: A curve class of 1.1 is a full agonist/antagonist; a curve class of 4 indicates the compound is inactive. The conditions noted are these: for Curve Class: agonist/antagonist character of the concentration-response, lower values = more significant concentration-response; for Increased SMN2 activity: percent increase (or decrease) in SMN2 levels compared to control in which no test compound is added. From the text: A cell-based quantitative high throughput screening (qHTS) assay is used to identify compounds able to increase SMN production. The assay uses a SMN2-luciferase reporter to determine if exon 7 of the SMN gene is expressed, which correlates with increased full-length SMN production from the SMN2 gene. As controls, a homologue SMN1-luciferase reporter cell line looks for variations in expression of the SMN1 gene and a cell line with just the luciferase reporter looks at the capacity of the compounds to inhibit luciferase. In addition, increments in SMN production by lead compounds were confirmed by Western-Blot analysis using SMA patient fibroblasts.
For the qHTS assay, concentration-response profiles are generated at the primary-screen level for each library compound to minimize the number of false positives. A dilution series consisting of seven points separated by five-fold concentration differences is prepared for each compound, yielding a concentration series that spans a range of about four orders of magnitude, for example from a high concentration of 50 micromolar to a low concentration of 3.2 nanomolar and providing adequate data for fitting to a Hill equation. For the assay, the SMN2 reporter cell line was plated at a density of ˜2000 cells/well in complete media (phenol red free DMEM, 10% detacl calf serum, and 1× pen/strep), in 1536 well white solid bottom tissue culture treated plates (Greiner). Cells were allowed to adhere and recover at 37 C in 5% CO2 for 10-12 hours. Compounds were added to the plates by a Pintool (Kalypsys) at a volume of 23 nl/well. Cells were incubated in the presence of compounds for 2 days at 37 C in 5% CO2. In order to quantify luciferase reporter levels, 3 ul/well of OneGlo (Promega) was added to each well and incubated at room temperature for 10 minutes. Luminescence from the reporter in each well is measured using a Viewlux CCD based imager (Perkin Elmer) with an integration time of 30 seconds and a binning of 2× in luminescence mode. Sodium butyrate was used as the positive control compound for luciferase induction and a column of 32 wells of 9.2 mM compound on each plate was used to monitor assay performance.
The SMN reporters used herein are modified from those previously described (M. L. Zhang, C. L. Lorson, E. J. Androphy and J. Zhou, An in vivo reporter system for measuring increased inclusion of exon 7 in SMN2 mRNA: potential therapy of SMA, Gene Ther 8 (2001), pp. 1532-1538.)
The sequence of the SMN1 reporter vector used herein is given in SEQ ID NO.:1, while that of the SMN2 reporter vector is given in SEQ ID NO.:2.
Each of the SMN reporters is constructed from three separate DNA fragments: (1) an SMN promotor sequence from the transcriptional reporter p 4.0T (SMN1) or p3.4C (SMN2) described in Monani, et al. Biochimica et Biophysica Acta 1445 (1999) 330-336; (2) a modification of the firefly luciferase splicing reporter for SMN1 or SMN2 described by Zhang et al; and (3) a 744 bp SMN cDNA fragment.
The 3.7 kB SMN1 promoter fragment is obtained by restriction of p4.0T with BglII and SacII. A 3.4 kB SMN2 promoter fragment is obtained by restriction of p3.4C with KpnI and SacII; a 300 bp BglII/KpnI fragment from p4.0T is then added to the 3.4 kB SMN2 promoter fragment to yield the final 3.7 kB SMN2 promoter fragment.
The modified SMN1 and SMN2 firefly luciferase splicing reporters are obtained by removing 4 kB of intron 6 in the original reporter system by restriction with SmaI/Swa followed by religation of the reporter. A 4 kB luciferase splicing reporter is then obtaind by digestion with XhoI and NotI.
Ths SMN cDNA fragment is obtained by generating the productof a polymerase chain reaction (PCR) on a cDNA preparation using […] (SEQ ID NO:3) as the forward primer and Tatctcgagtggtccagaaggaaatggaggcagcc (SEQ ID NO:4) as the reverse primer. The PCR product is then digested with XhoI and SacII. […]
(In a reporter assay the amount or activity of a reporter protein is the signal.)

For `NC(=O)C1CCN(c2nc(-c3cccc4sc5ccccc5c34)cs2)CC1` [Example 64, 1-(4-(Dibenzo[b,d]Thiophen-1-yl)Thiazol-2-yl)Piperidine-4-Carboxamide], the “Curve Class” value is listed as 2.1 and the “Increased SMN2 activity” value worked out at 369%.

As to `Cn1ccc2cc(-c3csc(N4CCC(C(N)=O)CC4)n3)ccc21` [Example 65, 1-(4-(1-Methyl-1H-Indol-5-yl)Thiazol-2-yl)Piperidine-4-Carboxamide], the “Curve Class” value worked out at 1.1 and the “Increased SMN2 activity” value stood at 534%.

For the compound `NC(=O)C1CCN(c2nc(-c3cc4ccccc4o3)cs2)CC1` [Example 68, 1-(4-(Benzofuran-2-yl)Thiazol-2-yl)Piperidine-4-Carboxamide], the “Curve Class” value was 2.1 and the “Increased SMN2 activity” value is recorded as 100%.

For the compound `CNC(=O)C1CCN(c2nc(-c3ccc(Br)cc3)cs2)CC1` [Example 70, 1-(4-(4-Bromophenyl)Thiazol-2-yl)-N-Methylpiperidine-4-Carboxamide], the “Curve Class” value amounted to 2.1 and the “Increased SMN2 activity” value stood at 101.9%.

As to `CN(C)C(=O)C1CCN(c2nc(-c3ccc(Br)cc3)cs2)CC1` [Example 71, 1-(4-(4-Bromophenyl)Thiazol-2-yl)-N,N-Dimethylpiperidine-4-Carboxamide], the “Curve Class” value was determined as 2.4 and the “Increased SMN2 activity” value is recorded as 42.71%.

`O=C(Nc1ccccc1)C1CCN(c2nc(-c3ccc(Br)cc3)cs2)CC1` [Example 72, 1-(4-(4-Bromophenyl)Thiazol-2-yl)-N-Phenylpiperidine-4-Carboxamide]: the “Curve Class” value turned out to be 1.1 and the “Increased SMN2 activity” value turned out to be 262.4%.

Turning to `O=C(C1CCN(c2nc(-c3ccc(Br)cc3)cs2)CC1)N1CCOCC1` [Example 74, (1-(4-(4-Bromophenyl)Thiazol-2-yl)Piperidin-4-yl)(Morpholino)Methanone], the “Curve Class” value is recorded as 2.2 and the “Increased SMN2 activity” value was found to be 77.48%.

As to `O=C(NCCc1ccccc1)C1CCN(c2nc(-c3ccc(Br)cc3)cs2)CC1` [Example 77, 1-(4-(4-Bromophenyl)Thiazol-2-yl)-N-Phenethylpiperidine-4-Carboxamide], the “Curve Class” value is recorded as 2.4 and the “Increased SMN2 activity” value is recorded as 31.29%.

As for `NC(=O)C1CCN(c2nccc(-c3ccc(Br)cc3)n2)CC1` [Example 80, 1-(4-(4-Bromophenyl)Pyrimidin-2-yl)Piperidine-4-Carboxamide], the “Curve Class” value amounted to 1.1 and the “Increased SMN2 activity” value is 387%.

Turning to `NC(=O)C1CCN(c2nc(-c3cccc(C(F)(F)F)c3)cs2)CC1` [Example 81, 1-(4-(3-(Trifluoromethyl)Phenyl)Thiazol-2-yl)Piperidine-4-Carboxamide], the “Curve Class” value is given as 2.2 and the “Increased SMN2 activity” value came to 100%.

Regarding `COc1ccc(-c2csc(N3CCC(C(N)=O)CC3)n2)cc1OC` [Example 83, 1-(4-(3,4-Dimethoxyphenyl)Thiazol-2-yl)Piperidine-4-Carboxamide], the “Curve Class” value was determined as 2.4 and the “Increased SMN2 activity” value is recorded as 58.51%.

On to `COc1cc(-c2csc(N3CCC(C(N)=O)CC3)n2)cc(OC)c1OC` [Example 84, 1-(4-(3,4,5-Trimethoxyphenyl)Thiazol-2-yl)Piperidine-4-Carboxamide], for which the “Curve Class” value is 2.2 and the “Increased SMN2 activity” value is 73.33%.

Turning to `COc1cc(OC)cc(-c2csc(N3CCC(C(N)=O)CC3)n2)c1` [Example 85, 1-(4-(3,5-Dimethoxyphenyl)Thiazol-2-yl)Piperidine-4-Carboxamide], the “Curve Class” value was 1.4 and the “Increased SMN2 activity” value is listed as 44.77%.

As to `NC(=O)C1CCN(c2ncc(-c3ccc(Br)cc3)s2)CC1` [Example 87, 1-(5-(4-Bromophenyl)Thiazol-2-yl)Piperidine-4-Carboxamide], the “Curve Class” value was determined as 1.1 and the “Increased SMN2 activity” value came to 598.7%.

As to `CN(C)c1cccc(-c2cnc(N3CCC(C(N)=O)CC3)s2)c1` [Example 88, 1-(5-(3-(Dimethylamino)Phenyl)Thiazol-2-yl)Piperidine-4-Carboxamide], the “Curve Class” value is 1.1 and the “Increased SMN2 activity” value came to 550.44%.

Turning to `CN(C)c1cccc(-c2cnc(N3CCC(C(N)=O)CC3)nc2)c1` [Example 89, 1-(5-(3-(Dimethylamino)Phenyl)Pyrimidin-2-yl)Piperidine-4-Carboxamide], the “Curve Class” value is on record as 1.1 and the “Increased SMN2 activity” value is given as 236.25%.

Turning to `CN(C)c1cccc(-c2ccnc(N3CCC(C(N)=O)CC3)n2)c1` [Example 90, 1-(4-(3-(Dimethylamino)Phenyl)Pyrimidin-2-yl)Piperidine-4-Carboxamide], the “Curve Class” value was determined as 1.1 and the “Increased SMN2 activity” value is 446.3%.

In the case of `CC(C)Oc1ccc(-c2csc(N3CCC(C(N)=O)CC3)n2)cc1` [Example 91, 1-(4-(4-Isopropoxyphenyl)Thiazol-2-yl)Piperidine-4-Carboxamide], the “Curve Class” value amounted to 1.1 and the “Increased SMN2 activity” value was 178.2%.

In the case of `NC(=O)C1CCN(c2nc(-c3ccc(Oc4ccccc4)cc3)cs2)CC1` [Example 92, 1-(4-(4-Phenoxyphenyl)Thiazol-2-yl)Piperidine-4-Carboxamide], the “Curve Class” value is recorded as 1.1 and the “Increased SMN2 activity” value stood at 240%.

As to `NC(=O)C1CCN(c2nc(-c3ccc4c(c3)OCC4)cs2)CC1` [Example 93, 1-(4-(2,3-Dihydrobenzofuran-6-yl)Thiazol-2-yl)Piperidine-4-Carboxamide], the “Curve Class” value came to 2.1 and the “Increased SMN2 activity” value came to 401.7%.

Consider `NC(=O)C1CCN(c2nc(-c3ccc(OC(F)(F)F)cc3)cs2)CC1` [Example 95, 1-(4-(4-(Trifluoromethoxy)Phenyl)Thiazol-2-yl)Piperidine-4-Carboxamide], for which the “Curve Class” value came to 1.1 and the “Increased SMN2 activity” value worked out at 296.8%.

As to `CCOc1ccc(-c2csc(N3CCC(C(N)=O)CC3)n2)cc1` [Example 96, 1-(4-(4-Ethoxyphenyl)Thiazol-2-yl)Piperidine-4-Carboxamide], the “Curve Class” value was found to be 1.1 and the “Increased SMN2 activity” value was 211.6%.

As to `CC(C)(C)c1ccc(-c2csc(N3CCC(C(N)=O)CC3)n2)cc1` [Example 98, 1-(4-(4-Tert-Butylphenyl)Thiazol-2-yl)Piperidine-4-Carboxamide], the “Curve Class” value was 1.1 and the “Increased SMN2 activity” value is 243.3%.

For the compound `NC(=O)C1CCN(c2nc(-c3ccc4c(c3)OCCCO4)cs2)CC1` [Example 99, 1-(4-(3,4-Dihydro-2H-Benzo[B][1,4]Dioxepin-7-yl)Thiazol-2-yl)Piperidine-4-Carboxamide], the “Curve Class” value was 1.1 and the “Increased SMN2 activity” value is recorded as 443.2%.

Turning to `CN(C)c1ccc(-c2csc(N3CCC(C(N)=O)CC3)n2)cc1` [Example 100, 1-(4-(4-(Dimethylamino)Phenyl)Thiazol-2-yl)Piperidine-4-Carboxamide], the “Curve Class” value is given as 2.2 and the “Increased SMN2 activity” value is 64.26%.

Regarding `N#CC1CCN(c2nc(-c3ccc(Br)cc3)cs2)CC1` [Example 102, 1-(4-(4-Bromophenyl)Thiazol-2-yl)Piperidine-4-Carbonitrile], the “Curve Class” value turned out to be 2.2 and the “Increased SMN2 activity” value worked out at 77.87%.
